Data reported in US9040524B2, “Antifungal 5,6-dihydro-4H-pyrrolo[1,2-a][1,4]-benzodiazepines and 6H-pyrrolo[1,2-a][1,4]benzodiazepines substituted with bicycle benzene derivatives” (JANSSEN PHARMACEUTICA NV, priority 2010, dated 2015).

Legend:
Type in all cases: cell-based
Trichophyton rubrum = assay: Antifungal activity in vitro, resazurin growth inhibition screen: Trichophyton rubrum; conditions: Trichophyton rubrum B68183; for IC50: read-out: Inf. C pIC50 (converted)
In short: (§1)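 Top in-test concentration 64 μM, serial 2- or 4-fold steps. Inoculum 10^3 cfu per well, RPMI-MOPS medium. Resazurin read-out normalised to no-drug and no-fungus controls.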

Rhizomucor miehei = assay: Antifungal activity in vitro, resazurin growth inhibition screen: Rhizomucor miehei; conditions: Rhizomucor miehei IHEM13391; for IC50: read-out: Inf. K pIC50 (converted)
Description: (§2) The standard susceptibility screen was performed in 96-well plates (U-bottom, Greiner Bio-One). Serial dilutions (2-fold or 4-fold) of 20 mM compound stock solutions were made in 100% DMSO, followed by an intermediate dilution step in water. These serial dilutions (10 μl) were then spotted onto test-plates that could be stored in the dark at 4° C. for a maximum period of 2 weeks. An adequate broad dose-range was included with 64 μM as the highest in-test concentration. […] The different fungal species/isolates (Table 3a) were cryopreserved and 1/1000 diluted in medium just prior to use. A standard inoculum of 200 μl containing 10^3 colony-forming unit (cfu) was then added to each well. A positive control (100% growth=fungal culture without antifungal) and a negative control (0% growth=RPMI-MOPS medium) were included on each plate.

Microsporum canis = assay: Antifungal activity in vitro, resazurin growth inhibition screen: Microsporum canis; conditions: Microsporum canis B68128; for IC50: read-out: Inf. B pIC50 (converted)
In short: as §1

Candida parapsilosis = assay: Antifungal activity in vitro, resazurin growth inhibition screen: Candida parapsilosis; conditions: Candida parapsilosis B66126; for IC50: Lodderomyces parapsilosis, read-out: Inf. D pIC50 (converted)
In short: as §1

Sporothrix schenkii = assay: Antifungal activity in vitro, resazurin growth inhibition screen: Sporothrix schenkii; conditions: Sporothrix schenkii B62482; for IC50: read-out: Inf. A pIC50 (converted)
In short: as §1

Aspergillus fumigatus = assay: Antifungal activity in vitro, resazurin growth inhibition screen: Aspergillus fumigatus; conditions: Aspergillus fumigatus B42928; for IC50: read-out: Inf. E pIC50 (converted)
In short: as §1

Scedosporium prolificans = assay: Antifungal activity in vitro, resazurin growth inhibition screen: Scedosporium prolificans; conditions: Scedosporium prolificans IHEM21157; for IC50: Lomentospora prolificans, read-out: Inf. I pIC50 (converted)
Description: as §2

[1] = tested on: Trichophyton mentagrophytes; assay: Antifungal activity in vitro, resazurin growth inhibition screen: Trichophyton mentagrophytes; conditions: Trichophyton mentagrophytes B70554; for IC50: read-out: Inf. G pIC50 (converted)
In short: as §1

Rhizopus oryzae = assay: Antifungal activity in vitro, resazurin growth inhibition screen: Rhizopus oryzae; conditions: Rhizopus oryzae IHEM5223; for IC50: Rhizopus arrhizus, read-out: Inf. J pIC50 (converted)
Description: as §2

Cryptococcus neoformans = assay: Antifungal activity in vitro, resazurin growth inhibition screen: Cryptococcus neoformans; conditions: Cryptococcus neoformans B66663; for IC50: read-out: Inf. F pIC50 (converted)
In short: as §1

Scedosporium apiospermum = assay: Antifungal activity in vitro, resazurin growth inhibition screen: Scedosporium apiospermum; conditions: Scedosporium apiospermum IHEM3817; for IC50: read-out: Inf. H pIC50 (converted)
Description: as §2

Cl.O=C1CCc2cc(C3NCc4c(Cl)cccc4-n4cccc43)ccc21 (centres unmarked) [Compound 51, 5-(7-chloro-5,6-dihydro-4H-pyrrolo[1,2-a][1,4]benzodiazepin-4-yl)-2,3-dihydro-1H-inden-1-one .HCl]
Inf. C pIC50 (Trichophyton rubrum): 5.84 | Inf. K pIC50 (Rhizomucor miehei): 4.29 | Inf. B pIC50 (Microsporum canis): 5.59 | Inf. D pIC50 (Candida parapsilosis): 4.91 | Inf. A pIC50 (Sporothrix schenkii): 4.46 | Inf. E pIC50 (Aspergillus fumigatus): 5.24 | Inf. I pIC50 (Scedosporium prolificans): 5.32 | Inf. G pIC50 [1]: 5.32 | Inf. J pIC50 (Rhizopus oryzae): <4.19 | Inf. F pIC50 (Cryptococcus neoformans): 4.74 | Inf. H pIC50 (Scedosporium apiospermum): 4.67

FC1(F)Oc2ccc(C3=NCc4cccc(Cl)c4-n4cccc43)cc2O1 [Compound 76, 10-chloro-4-(2,2-difluoro-1,3-benzodioxol-5-yl)-6H-pyrrolo[1,2-a][1,4]benzo-diazepine]
Inf. C pIC50 (Trichophyton rubrum): 6.82 | Inf. K pIC50 (Rhizomucor miehei): 4.98 | Inf. B pIC50 (Microsporum canis): 6.70 | Inf. D pIC50 (Candida parapsilosis): 5.18 | Inf. A pIC50 (Sporothrix schenkii): 5.69 | Inf. E pIC50 (Aspergillus fumigatus): 5.94 | Inf. I pIC50 (Scedosporium prolificans): 5.04 | Inf. G pIC50 [1]: 6.38 | Inf. J pIC50 (Rhizopus oryzae): 4.57 | Inf. F pIC50 (Cryptococcus neoformans): 5.82 | Inf. H pIC50 (Scedosporium apiospermum): 5.13

Fc1cccc2c1CN=C(c1ccc3c(c1)OC(F)(F)O3)c1cccn1-2 [Compound 77, 4-(2,2-difluoro-1,3-benzodioxol-5-yl)-7-fluoro-6H-pyrrolo[1,2-a][1,4]benzo-diazepine]
IC50 (Trichophyton rubrum): 19.5 nM | IC50 (Rhizomucor miehei): > 64600 nM | IC50 (Microsporum canis): 135 nM | IC50 (Candida parapsilosis): 3390 nM | IC50 (Sporothrix schenkii): 3550 nM | IC50 (Aspergillus fumigatus): 56.2 nM | IC50 (Scedosporium prolificans): 1740 nM | IC50 [1]: 115 nM | IC50 (Rhizopus oryzae): 12000 nM | IC50 (Cryptococcus neoformans): 5370 nM | IC50 (Scedosporium apiospermum): 22400 nM

FC1(F)Oc2ccc(C3=NCc4c(Cl)cc(Cl)cc4-n4cccc43)cc2O1 [Compound 79, 7,9-dichloro-4-(2,2-difluoro-1,3-benzodioxol-5-yl)-6H-pyrrolo[1,2-a][1,4]benzo-diazepine]
Inf. C pIC50 (Trichophyton rubrum): 6.29 | Inf. K pIC50 (Rhizomucor miehei): <4.19 | Inf. B pIC50 (Microsporum canis): 6.28 | Inf. D pIC50 (Candida parapsilosis): 5.62 | Inf. A pIC50 (Sporothrix schenkii): 4.90 | Inf. E pIC50 (Aspergillus fumigatus): 5.71 | Inf. I pIC50 (Scedosporium prolificans): 5.98 | Inf. G pIC50 [1]: 5.79 | Inf. J pIC50 (Rhizopus oryzae): <4.19 | Inf. F pIC50 (Cryptococcus neoformans): 5.60 | Inf. H pIC50 (Scedosporium apiospermum): 5.72

O=C1CCCc2cc(C3=NCc4c(F)cccc4-n4cccc43)ccc21 [Compound 59, 6-(7-fluoro-6H-pyrrolo[1,2-a][1,4]benzodiazepin-4-yl)-3,4-dihydro-1(2H)-naphthalenone]
IC50 (Trichophyton rubrum): 129 nM | IC50 (Rhizomucor miehei): 1480 nM | IC50 (Microsporum canis): 372 nM | IC50 (Candida parapsilosis): 2750 nM | IC50 (Sporothrix schenkii): 4270 nM | IC50 (Aspergillus fumigatus): 398 nM | IC50 (Scedosporium prolificans): 1480 nM | IC50 [1]: 339 nM | IC50 (Rhizopus oryzae): > 12900 nM | IC50 (Cryptococcus neoformans): 1120 nM | IC50 (Scedosporium apiospermum): 741 nM

Cl.Clc1cccc2c1CNC(c1ccc3c(c1)CCOC3)c1cccn1-2 (centres unmarked) [Compound 28, 7-chloro-4-(3,4-dihydro-1H-2-benzopyran-6-yl)-5,6-dihydro-4H-pyrrolo[1,2-a]-[1,4]benzodiazepine .HCl]
Inf. C pIC50 (Trichophyton rubrum): 6.66 | Inf. K pIC50 (Rhizomucor miehei): 4.39 | Inf. B pIC50 (Microsporum canis): 6.24 | Inf. D pIC50 (Candida parapsilosis): 5.53 | Inf. A pIC50 (Sporothrix schenkii): <4.19 | Inf. E pIC50 (Aspergillus fumigatus): 5.99 | Inf. I pIC50 (Scedosporium prolificans): 4.63 | Inf. G pIC50 [1]: 6.29 | Inf. J pIC50 (Rhizopus oryzae): <4.19 | Inf. F pIC50 (Cryptococcus neoformans): 4.71 | Inf. H pIC50 (Scedosporium apiospermum): 4.97

CN1CCc2cc(C3=NCc4c(Cl)cccc4-n4cccc43)ccc21 [Compound 83, 7-chloro-4-(2,3-dihydro-1-methyl-1H-indol-5-yl)-6H-pyrrolo[1,2-a][1,4]benzo-diazepine]
Inf. C pIC50 (Trichophyton rubrum): 5.71 | Inf. K pIC50 (Rhizomucor miehei): <4.19 | Inf. B pIC50 (Microsporum canis): 5.66 | Inf. D pIC50 (Candida parapsilosis): 5.28 | Inf. A pIC50 (Sporothrix schenkii): 5.14 | Inf. E pIC50 (Aspergillus fumigatus): 5.89 | Inf. I pIC50 (Scedosporium prolificans): 5.85 | Inf. G pIC50 [1]: 5.06 | Inf. J pIC50 (Rhizopus oryzae): <4.19 | Inf. F pIC50 (Cryptococcus neoformans): 5.57 | Inf. H pIC50 (Scedosporium apiospermum): 4.76
